{"source": "patent US6495551B1", "about": "“Substituted phenyloxazolidinones and their use as antibiotics” (priority 1997, dated 2002)", "assay_in_all_cases": "MIC by agar-dilution, standard in vitro test system", "assay_type_in_all_cases": "cell-based", "conditions_in_all_cases": "IsoSensitest agar, inoculum 10^4 CFU/spot, 37° C. for 24 hours", "key": {"[1]": {"test_system": "Coagulase Negative Staphylococcus MR (methicillin resistant)", "protocol": "(§1) The following results were obtained on a standard in vitro test system. The activity is described in terms of the minimum inhibitory concentration (MIC) determined by the agar-dilution technique with an inoculum size of 10^4 CFU/spot.\n(§2) The organisms were tested on a standard semi-defined susceptability test medium (IsoSensitest agar), using an inoculum of 10^4 CFU/spot and an incubation temperature of 37° C. for 24 hours."}, "[2]": {"test_system": "Staphylococcus aureus Novb. Res (Novobiocin resistant)", "protocol": "as §1, §2\nNovb. Res=Novobiocin resistant"}, "[3]": {"test_system": "Staphylococcus aureus MRQR (methicillin resistant quinolone resistant)", "protocol": "as §1, §2\nMRQR=methicillin resistant quinolone resistant"}, "[4]": {"test_system": "Staphylococcus aureus Oxford", "protocol": "as §1, with “CFU/spot. The organisms were tested on a standard semi-defined susceptability test medium (IsoSensitest agar), using an inoculum of 10^4 CFU/spot and an incubation temperature of 37° C. for 24 hours.” for “CFU/spot.”"}, "[5]": {"test_system": "Coagulase Negative Staphylococcus MS", "protocol": "as §1, with “CFU/spot. The organisms were tested on a standard semi-defined susceptability test medium (IsoSensitest agar), using an inoculum of 10^4 CFU/spot and an incubation temperature of 37° C. for 24 hours.” for “CFU/spot.”"}, "Enterococcus faecalis": {"test_system": "Enterococcus faecalis", "protocol": "as §1, with “CFU/spot. The organisms were tested on a standard semi-defined susceptability test medium (IsoSensitest agar), using an inoculum of 10^4 CFU/spot and an incubation temperature of 37° C. for 24 hours.” for “CFU/spot.”"}, "[6]": {"test_system": "Streptococcus pyogenes C203", "protocol": "as §1, with “CFU/spot. The organisms were tested on a standard semi-defined susceptability test medium (IsoSensitest agar), using an inoculum of 10^4 CFU/spot and an incubation temperature of 37° C. for 24 hours.” for “CFU/spot.”"}, "Bacillus subtilis": {"test_system": "Bacillus subtilis", "protocol": "as §1, with “CFU/spot. The organisms were tested on a standard semi-defined susceptability test medium (IsoSensitest agar), using an inoculum of 10^4 CFU/spot and an incubation temperature of 37° C. for 24 hours.” for “CFU/spot.”"}}}
{"smiles": "CC(=O)NC[C@H]1CN(c2ccc(-n3cnc(C(=O)Nc4nccs4)c3)c(F)c2)C(=O)O1", "note": "[Example 43, N-[(5S)-3-(3-Fluoro-4-(4-(thiazol-2-ylaminocarbonyl)imidazol-1-yl)phenyl)-2-oxooxazolidin-5-ylmethyl]acetamide]", "values": [{"measurement": "MIC", "setting": "[1]", "value": 0.25, "unit": "µg/mL"}, {"measurement": "MIC", "setting": "[2]", "value": 0.25, "unit": "µg/mL"}, {"measurement": "MIC", "setting": "[3]", "value": 1, "unit": "µg/mL"}, {"measurement": "MIC", "setting": "[4]", "value": 0.125, "unit": "µg/mL"}, {"measurement": "MIC", "setting": "[5]", "value": 0.06, "unit": "µg/mL"}, {"measurement": "MIC", "setting": "Enterococcus faecalis", "value": 0.5, "unit": "µg/mL"}, {"measurement": "MIC", "setting": "[6]", "value": 0.125, "unit": "µg/mL"}, {"measurement": "MIC", "setting": "Bacillus subtilis", "value": 0.25, "unit": "µg/mL"}]}
